Laboratory results reported in PubChem BioAssay AID651973 (The Scripps Research Institute Molecular Screening Center, 2013).
Calls of active or inactive are those of the source. The rule behind the calls is not given here.

The compounds below were run on Cell-based VP16 transactivation luciferase reporter, luminescence (assay: compounds lowering VP16-driven luciferase output – cell-based, luminescence, counter-screen for LRH-1 inverse agonist project, dose response (AID 651973)).

SMILES	IC50
Cc1no[n+]([O-])c1COc1ccc(/C=C2\NC(=S)NC2=O)cc1	> 35.9 µM (inactive)
COc1ccc(-n2c(/C=C(\C)O)nc(=O)c3c(C)cc(C)nc32)cc1	> 35.9 µM (inactive)
CCc1cc(=O)[nH]c(SCC(=O)Nc2ccc3c(c2)OCCO3)n1	> 35.9 µM (inactive)
Cc1c(Cl)cccc1NC(=O)CS(=O)(=O)c1ccccc1	> 35.8 µM (inactive)
CCc1cc(=O)oc2c(C)c(OCC(=O)NCCN3CCOCC3)ccc12	> 35.9 µM (inactive)
COc1ccc(NC(=O)CSc2ccc3c(c2)OCCO3)cc1	> 35.9 µM (inactive)
CC(=O)Nc1ccc(NC(=O)CSc2nnc(NC(=O)C3CC3)s2)cc1	> 35.9 µM (inactive)
COc1ccc(NC(=O)CN2C(=O)NC3(CCCC3)C2=O)cc1	> 35.9 µM (inactive)
Cc1cc(C)c2sc(NC(=O)c3ccc([N+](=O)[O-])o3)nc2c1	> 35.8 µM (inactive)
O=C(Nc1ccccc1)c1oc2ccccc2c1NC(=O)C1CC1	> 35.9 µM (inactive)
COc1cc2c(cc1OC)CN(C(=O)CN1C(=O)NC3(CCC(C)CC3)C1=O)CC2 (configuration not stated)	> 35.9 µM (inactive)
O=C(COc1ccc2c3c(c(=O)oc2c1)CCCC3)NCCCN1CCOCC1	> 35.9 µM (inactive)
O=C(COc1ccc2c3c(c(=O)oc2c1)CCCC3)NCCN1CCOCC1	> 35.8 µM (inactive)
COc1cc(/C=N/NC(N)=S)ccc1OCC(=O)Nc1ccc(C)cc1	> 35.9 µM (inactive)
N#Cc1cc([N+](=O)[O-])ccc1NC(=O)COC(=O)C1CCC(=O)N1 (configuration not stated)	> 35.9 µM (inactive)
O=C(Cc1ccc(S(=O)(=O)N2CCCC2)s1)Nc1cccc([N+](=O)[O-])c1	14.1 µM (inactive)
COC(=O)c1ccc(N2CCCCC2)c(NC(=O)c2ccco2)c1	13.3 µM (inactive)
CCOc1ccc(NC(=O)COC(=O)COc2cccc3c2OC(C)(C)C3)cc1	> 35.9 µM (inactive)
CN1CCN(c2ccc(S(=O)(=O)N3CCCCC3)cc2NC(=O)COc2ccc([N+](=O)[O-])cc2)CC1	> 35.9 µM (inactive)
CC(=O)Nc1ccc(N=c2cc([N+](=O)[O-])cc(Cl)n2O)cc1	> 35.9 µM (inactive)
COc1cccc(C(=O)COc2cccc(NC(=O)c3cccc([N+](=O)[O-])c3)c2)c1	8.46 µM
O=C(COC(=O)CCN1C(=O)C2CC=CCC2C1=O)NCCc1ccccc1 (configuration not stated)	> 35.9 µM (inactive)
O=C(COc1ccc2c3c(c(=O)oc2c1)CCCC3)NCc1ccccn1	> 35.9 µM (inactive)
CC(=O)Nc1cc(-c2ccc(F)cc2)cn2c(-c3ccc(S(C)(=O)=O)cc3)cnc12	> 35.9 µM (inactive)

SMILES	IC50
CC1CCC2(CC1)NC(=O)N(CC(=O)Nc1ccc3c(c1)OCCCO3)C2=O (configuration not stated)	> 35.9 µM (inactive)
COc1ccc(CCNC(=O)CSc2nc3[nH]c(=O)cc(O)c3s2)cc1	> 35.9 µM (inactive)
O=C(CN1C(=O)NC2(CCCC2)C1=O)NCCc1ccc(F)cc1	> 35.9 µM (inactive)
COc1ccc(CCNC(=O)COC(=O)Cc2ccccc2[N+](=O)[O-])cc1	> 35.9 µM (inactive)
Cc1no[n+]([O-])c1COc1ccccc1/C=N/n1nnnc1N	> 35.9 µM (inactive)
COc1ccc(NC(=O)CSc2ncnc3[nH]ncc23)cc1	> 35.9 µM (inactive)
COc1ccc(OCCNC(=O)C2(C)CCN2Cc2ccc(SC)cc2)cc1 (configuration not stated)	28.5 µM (inactive)
CCOc1ccc(Cc2nnc(SCC(=O)Nc3ccc(C(C)=O)cc3)[nH]c2=O)cc1	> 35.9 µM (inactive)
NS(=O)(=O)c1ccc(O)c(NC(=O)c2ccc([N+](=O)[O-])o2)c1	> 35.9 µM (inactive)
Cc1cc(OCC(=O)N2CCC(O)CC2)c2c(C)cc(=O)oc2c1	> 35.9 µM (inactive)
CCOc1ccc(NC(=O)CSc2nncc(=O)[nH]2)cc1	> 35.9 µM (inactive)
Cc1onc(-c2ccccc2Cl)c1C(=O)O/N=C(\N)c1ccc([N+](=O)[O-])o1	> 35.9 µM (inactive)
O=C(CCl)NCCCN(C(=O)C(Cl)Cl)c1ccc([N+](=O)[O-])cc1	28.4 µM (inactive)
Cc1onc(-c2cccc(Cl)c2Cl)c1C(=O)O/N=C(\N)c1ccc([N+](=O)[O-])o1	> 35.9 µM (inactive)
CCOc1ccc(NC(=O)CSc2nnc(C(C)C)n2CC)cc1	> 35.9 µM (inactive)
O=C(COC(=O)c1ccc(=O)n(Cc2ccccc2)n1)Nc1ccc2c(c1)OCCO2	> 35.9 µM (inactive)
CC(=O)Nc1cc(-c2cccc(F)c2)cn2c(-c3ccc(S(C)(=O)=O)cc3)cnc12	18.7 µM (inactive)
CCCc1cc(=O)oc2cc(C)cc(OCC(=O)NC3CC3)c12	> 35.9 µM (inactive)
O=C(COC(=O)c1ccc(Br)cc1)Nc1ccccc1Br	> 35.9 µM (inactive)
CCCc1nnc(SCC(=O)Nc2ccc(OC)cc2)o1	> 35.9 µM (inactive)
CC(C)CC1(C)NC(=O)N(CC(=O)Nc2ccc3c(c2)OCCO3)C1=O (configuration not stated)	> 35.9 µM (inactive)
Cc1cc([N+](=O)[O-])ccc1NC(=O)CSc1nnc(C)n1C	> 35.8 µM (inactive)
Cc1onc(NC(=O)c2ccc([N+](=O)[O-])o2)c1Br	> 35.9 µM (inactive)
